Assay results from US9594084B2, “Phosphorylation of histones and uses thereof” (H. LEE MOFFITT CANCER CENTER AND RESEARCH INSTITUTE, priority 2012, dated 2017).

Legend:
WEE1 = WEE1 (Homo sapiens, UniProt P30291); experiment: Peptide Immunosandwich Assay (PIA) with GBM tumor lysates; type: biochemical; conditions: 100 ug of lysates, 10 uM for 30 minutes
Procedure: Threshold interval is shown.
In brief, Streptavidin coated 96-well plates (R&D systems) were incubated with biotinylated human histone H2B derived peptides […] (SEQ ID NO: 62, Y37 site is underlined). H2B derived phospho-peptide KRSRKESp[…] (SEQ ID NO: 63) was used as positive control. Any unbound areas on the plate were blocked with 3% BSA. Next, purified WEE1 protein (100 ng) prepared in kinase buffer (20 mM HEPES, 225 mM NaCl, 1% Triton X-100, 10% glycerol, phosphatase and protease inhibitors) supplemented with 1 uM ATP and 1 uM MgCl2. After 2 hours of incubation, plates were washed with phosphate buffered saline containing 0.1% Tween 20 (PBST) and reblocked in 3% BSA. The pY37-H2B or pTyr antibodies (at 1:1000 dilution) were added and incubated for 1 hour. Unbound antibodies were washed and HRP-conjugated anti-mouse secondary antibodies (1:5000) were added. The magnitude of phosphorylation was detected using developer solution (OPD tablets, Sigma) and after 20 minutes of incubation, the plates were read at 450 nm.
To assess the WEE1 epigenetic activity in GBM patients, lysates were prepared from 8 GBM tumor biopsies and 3 normal brain samples as a control. The lysates were quantitated and 100 ug of lysates was used per reaction. Each reaction was performed in triplicates. […]

[1] = tested on: NPAT and RNA polymerase II at Site II; experiment: ChIP-qPCR with NPAT or RNA Pol II antibodies at Site II in synchronized MEFs; type: cell-based, mouse; conditions: 6.30 hours post-release
Procedure: FIG. 3B-3F are graphs showing histone RNA (relative to actin) in wildtype (WT) and Y40A mutant yeast cells treated with α-factor for 3 hours, washed and harvested at indicated time points post-release. Total RNA was prepared followed by qRT-PCR for histones transcripts. FACS analysis of yeast cells was performed to determine exit of cells from […] (0 minutes) and entry into cell cycle. Data are representative of three independent experiments. The p values for 30 minutes are as follows: #p=0.024; ##p=0.008; ###p=0.0083; ####p=0.037. FIG. 3G to 3H are graphs showing ChIP (% input DNA) in synchronized MEFs treated with WEE1 inhibitor or untreated and harvested 6.30 hours post-release. ChIP was performed using NPAT and IgG antibodies (FIG. 3G) or RNA Pol II and IgG (FIG. 3H) followed by qPCR using primers corresponding to Site II. *p=0.0018, **p=0.01. FIG. 3I is an immunoblot showing total histones prepared from synchronized WT (first three columns) and Y40A mutant yeast cells (last three columns) 0, 20, and 30 minutes post release that were immunoprecipitated with pTyr37-H2B antibodies and immunoblotted with yeast H2B antibodies (upper panel) or yeast tubulin antibodies (bottom panel). […]
To understand the potential mechanism of repression of histone transcription the role of NPAT was assessed. […]

[2] = tested on: core histone genes located in Hist1 cluster; experiment: qRT-PCR of histone genes (8-histone gene signature) in synchronized cells; type: cell-based; conditions: MK1775 0.6 uM, 14 hr, 8.30 hours post-release
Procedure: FIG. 33a-33h show a 8-histone gene signature. a-h, Synchronized cells treated with WEE1 inhibitor, MK1775 (0.6 uM, 14 hr) were harvested at indicated time points post-release. Total RNA was prepared followed by quantitative RT-PCR for 8 histone genes.
Human cells have 55 distinct histone genes each encoding a fraction of core histones. This study determined histone levels using 20 of these genes. In untreated cells, rapid decrease in transcripts of all of these histone genes was observed when RNA levels of 6.30 hours post-release samples (late S phase) were compared with 8.30 hours post-release (G2/M phase) samples (FIGS. 33a-33h).
Based on extensive transcriptional profiling of 20 histone genes, this study identified 8 genes (H2Bm, H2bn, H2Bl, H3 h, H4j, H2Ai, H2Ak and H2Bk) as being representative of global histone transcriptional output, termed as the 8-histone gene signature.

[3] = tested on: pY37-H2B epigenetic marks within IDH2; experiment: Directed ChIP-PCR of pY37-H2B marks in IDH2 coding region, synchronized MEFs; type: cell-based, mouse
[4] = tested on: WEE1 expressing cancer cell lines; conditions: cited from earlier work
[5] = tested on: cancers and cancer cell lines; conditions: cited from earlier work
[6] = tested on: core histone genes located in Hist1 cluster; experiment: Quantitative RT-PCR of core histone transcripts in synchronized MEFs; type: cell-based, mouse; conditions: MK1775 0.625 μM, 14 hr, after 6.30 hours post-release (compare 8.30 hours)

WEE1, sequence (P30291 whole entry): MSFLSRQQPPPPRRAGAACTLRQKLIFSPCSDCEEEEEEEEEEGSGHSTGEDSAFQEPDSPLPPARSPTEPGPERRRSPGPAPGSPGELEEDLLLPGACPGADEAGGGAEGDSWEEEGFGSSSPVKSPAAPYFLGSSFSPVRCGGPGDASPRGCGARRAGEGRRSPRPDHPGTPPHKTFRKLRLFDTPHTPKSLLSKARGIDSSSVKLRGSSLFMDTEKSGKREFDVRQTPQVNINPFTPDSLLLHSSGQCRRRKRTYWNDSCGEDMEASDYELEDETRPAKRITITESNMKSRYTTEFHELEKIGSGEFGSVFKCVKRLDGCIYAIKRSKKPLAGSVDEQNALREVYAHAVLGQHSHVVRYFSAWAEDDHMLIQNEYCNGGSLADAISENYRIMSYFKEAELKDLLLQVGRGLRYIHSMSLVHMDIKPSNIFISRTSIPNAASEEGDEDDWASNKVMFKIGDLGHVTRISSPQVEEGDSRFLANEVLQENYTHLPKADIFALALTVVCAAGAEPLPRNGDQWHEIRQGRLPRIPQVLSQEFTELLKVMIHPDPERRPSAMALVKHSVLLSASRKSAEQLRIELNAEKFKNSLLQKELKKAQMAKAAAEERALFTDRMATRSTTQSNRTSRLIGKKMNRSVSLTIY

SMILES: C=CCn1c(=O)c2cnc(Nc3ccc(N4CCN(C)CC4)cc3)nc2n1-c1cccc(C(C)(C)O)n1 [MK-1775]
- WEE1 activity in GBM tumor lysates (WEE1): significantly reduced
- recruitment of NPAT at Site II [1]: binding was detected
- recruitment of RNA polymerase II at Site II [1]: binding was detected
- histone mRNA levels [2]: did not decrease
- deposition of pY37-H2B epigenetic marks in the IDH2 coding region [3]: abolished
- apoptosis [4]: selectively induces apoptosis
- sensitization to DNA damaging agents such as gemcitabine, 5-fluorouracil [5]: able to sensitize
- histone mRNA levels [6]: significant increase
